Reference: patent US20110237535A1, “Use of Induced Pluripotent Cells and other Cells for Screening Compound Libraries” (priority 2010, published 2011)
“Also recorded” adds a separate entry of the source. Like-named read-outs stand apart in the source and are kept apart here.

Assays:
HeLa cells = type: cell-based
Procedure: In another experiment HeLa cells were treated with 100 uM of tamoxifen (a calcium influx stimulator), doxorubicin (a DNA damaging agent), cycloheximide (a protein synthesis inhibitor), digitonin (a mild detergent), and a buffer, and monitored every 15 minutes on a BIND™ Reader for 40 hours in a 37° C. incubator. The cytotoxic compounds each have distinct mechanisms of action that have distinct kinetic profiles in the assays of the invention. Toxins can be tested for their effect on differing types of cells and can be placed into a class or sub-class of toxins (e.g. calcium influx stimulator) based on their kinetic profiles. These assays have a higher throughput than electrical impedance testing for screening and profiling of toxic compounds.

[1] = tested on: Murine embryonic stem cell-derived cardiomyocytes; assay: Beating amplitude and frequency of cardiomyocytes, PWV at 4 reads per second; type: cell-based
Procedure: Murine embryonic stem cell-derived cardiomyocytes were added to wells of a biosensor and a BIND™ Reader recorded PWVs at the rate of 4 reads per second. One well was treated with KCl and another well was not treated. The cells beat synchronously when cultured on BIND™ optical biosensors and the frequency of the beating can be detected. […] The BIND™ Reader detects beating frequency and rate as oscillations of positive-negative PWV shifts. Kinetic PWV profiles can be used to accurately measure beating rate and frequency. Therefore, the assay provides an ultra high-throughput assay to measure off-target drug effects on cardiotoxicity and contractility.
In another experiment the cardiomyocytes were plated at 20,000 cells per well on fibronectin coated biosensor plates. The cells were incubated for 72 h at 37° C. before the experiment. The cells were monitored for 3 minutes before KCl was added to 50 mM final concentration.
In another experiment cardiomyocytes were treated for 17 hours with several different concentrations of doxorubicin (10 μM, 1 μM, 0.1 μM, 0.01 μM, and 0 μM). The beating amplitude and frequency was measured at 4 reads/second prior to doxorubicin treatment, then again after the 17 hour doxorubicin incubation.

cardiomyocytes = assay: Cardiomyocyte beating recorded with refined high-speed BIND Cartridge Reader; type: cell-based; conditions: 6, 10 and 15 minutes after addition, FIG. 17
Description: An Ocean Optics HT2000+ spectrometer in a BIND™ Cartridge Reader was altered so that the slit that allows light into the spectrometer was widened, allowing more light to enter the enter the spectrometer. Therefore, recordings of up to 1000 Hz, i.e. up to 1000 readings/second can be obtained when the BIND™ Cartridge Reader is “parked” (i.e., the BIND™ Cartridge Reader remains in one position over, e.g., a well holding cells). The recordings are made continually in real-time. Recordings can be taken at about 2, 4, 10, 50, 80, 100, 250, 280, 300, 400, 500, 600, 700, 800, 900, 1,000 or more Hz (or any range between about 2 and about 1,000 Hz).
The refined BIND™ Cartridge Reader was used to take measurements of cardiomyocyte beating. […] By comparison, the data in Examples 1 and 2 was measured at 4 Hz. The increased sampling rate allows a much more refined look at the shape of each individual beat. Different beating “phenotypes” can be determined from well-to-well, in addition, the difference between synchronous beating across the well and asynchronous beating can be determined. […]
Amitriptyline is a tricyclic antidepressant sold under the trade name Elavil™. […] Amitriptyline was added to cardiomyocytes that were beating in culture and PWVs were constantly monitored. […]

[2] = tested on: mES-derived cardiomyocytes (Cor.At); assay: Doxorubicin toxicity on mES-derived cardiomyocytes, constant PWV monitoring; type: cell-based, murine
Procedure: mES-derived cardiomyocytes (Cor.At) were obtained from Axiogenesis/Lonza. 5,000 cells per well were plated on fibronectin-coated 384 well biosensor plates for 24 h before experiment. These cells beat in culture. Cells were treated with doxorubicin for 17 h at 37° C. with constant monitoring using the BIND™ Reader. […] There is an oscillation of PWVs that indicates the beating of the cells. The amplitude of the beating becomes stronger over time. That is, there is Y axis spread of the PWV reading grows larger over time as the cells beat stronger in culture.

[3] = FIG. 6-9, cell line not restated in these blocks
[4] = KCl-treated well vs untreated well, FIG. 11

Molecule | kinetic profile (PWV over time) (HeLa cells; [3]) | further results
4-hydroxy-tamoxifen | faster onset of toxicity than tamoxifen | –
CC[C@@]1(O)C(=O)OCc2c1cc1n(c2=O)Cc2cc3ccccc3nc2-1 [Camptothecin] | somewhat different kinetic profile | –
N.N.[Cl][Pt][Cl] [Cisplatin] | sudden onset, steep decline, followed by a negative PWV plateau | –
[Cl-].[K+] [KCl] | – | rate and frequency of the beating ([1]; KCl 50 mM final concentration, added after 3 minutes of monitoring, 20,000 cells per well, FIG. 13): drastically reduced; amplitude of the beating [1, 4]: loss of amplitude of the beating; frequency of the beating [1, 4]: decrease in the frequency of the beating
CN(C)CCC=C1c2ccccc2CCc2ccccc21 [amitriptyline] | – | beating pattern after compound addition (cardiomyocytes): change from regular, synchronous beating to irregular, non-synchronous beating
COc1cccc2c1C(=O)c1c(O)c3c(c(O)c1C2=O)C[C@@](O)(C(=O)CO)C[C@@H]3O[C@H]1C[C@H](N)[C@H](O)[C@H](C)O1 [doxorubicin] | sudden onset, steep decline, followed by a negative PWV plateau | PWV readings ([2]; doxorubicin 17 h at 37° C., 5,000 cells per well, FIG. 10): PWV readings become negative; also recorded: dose dependant; amplitude of beating over time ([2]; doxorubicin 17 h at 37° C., FIG. 10A): becomes weaker over time; amplitude and frequency of beating ([1]; 17 hours doxorubicin at 10 μM, 1 μM, 0.1 μM, 0.01 μM, 0 μM, FIG. 14): disrupted by doxorubicin in a concentration-dependent manner
CO[C@@]12[C@H](COC(N)=O)C3=C(C(=O)C(C)=C(N)C3=O)N1C[C@@H]1N[C@@H]12 [mitomycin] | sudden onset, steep decline, followed by a negative PWV plateau | –
[K+].[K+].[O]=[Cr](=[O])([O-])[O][Cr](=[O])(=[O])[O-] [potassium dichromate] | – | kinetic profile (PWV over time) (HeLa cells): sudden onset, steep decline, followed by a negative PWV plateau
O=C(c1ccc(OCCN2CCCCC2)cc1)c1c(-c2ccc(O)cc2)sc2cc(O)ccc12 [raloxifene] | lack of cytotoxic response | –
CC/C(=C(\c1ccccc1)c1ccc(OCCN(C)C)cc1)c1ccccc1 [tamoxifen] | sharp downward shift in PWV at early time points | –
CC[C@]1(O)C[C@@H]2CN(CCc3c([nH]c4ccccc34)[C@@](C(=O)OC)(c3cc4c(cc3OC)N(C)[C@H]3[C@@](O)(C(=O)OC)[C@H](OC(C)=O)[C@]5(CC)C=CCN6CC[C@]43[C@@H]65)C2)C1 [vinblastine] | rapid acute response and then a gradual negative PWV shift over the long term | –
